Test results reported in article PMC12196476, “New Nitrogen-, Oxygen-, and Sulfur-Containing Heterocyclic Compounds as Anti-Colon Cancer Agents: Synthesis, Multitargeted Evaluations, Molecular Docking Simulations and ADMET Predictions” (Pharmaceuticals, 2025).

Columns and labels:
[1] = system: HCT-116 colon carcinoma cells; assay: Cell viability, LDH release assay, HCT-116; conditions: Homo sapiens, HCT-116, 48 h; for viability at 100 µg/mL: read-out: Mean % of viable cells ± SD, HCT-116, 100 µg/mL, 48 h, LDH release assay
Protocol: (§1) The studied compounds were also screened for their cytotoxic effects on HCT-116 and LoVo colon carcinoma cells, as well as normal HUVECs, using the standard LDH assay at a concentration of 100 µg/mL.
(§2) The antiproliferative activities of the newly synthesized compounds 3a–e, 8, 9a–c, 13, 14, 17, 18a–h, 20, 22, 23 and 25 were examined on human colon HCT-116 and LoVo cell lines as well as HUVEC (American Type Culture Collection, Manassas, VA, USA). […]
(§3) S3.2.4. Cell culture and viability assay.
(§4) The cytotoxic activities of the newly synthesized compounds (3a-e, 8, 9a-c, 13, 14, 17, 18a-h, 20, 22,
(§5) 23, and 25) were examined on human colon cancer cell lines HCT-116 and Lovo (American Type
(§6) Culture Collection, USA). Various concentrations (50, 100, 200, and 400 μg/mL) of test compounds
(§7) were prepared in Dulbecco’s Modified Eagles Medium (PAN-Biotech, Barcelona, Spain),

PDK-1 = PDK-1 (Homo sapiens, UniProt Q15118); assay: In vitro PDK-1 inhibition assay (Kinase-Glo luminescent kinase kit); format: biochemical; conditions: 100 µg/mL, three replicates; read-out: Mean Inhibition Percent ± SD, PDK-1
Protocol: Principally, the PDK-1 inhibitory activities were evaluated using the non-radioactive Kinase-Glo™ Luminescent Kinase Kit (Promega Corporation, Madison, WI, USA) following the instructions of the manufacturer.
S3.2.2. In vitro PDK-1 inhibition assay.
The PDK-1 inhibitory activities of the test compounds were evaluated using the non-radioactive
Kinase-Glo™ Luminescent Kinase kit (Promega Corporation, Madison, WI, USA), following the
manufacturer’s protocol. Briefly, 5 μL of assay buffer—containing 10 × 250 mM Tris-HCl, 50 mM
MgCl2, 5 mM ethyleneglycol-bis(β-aminoethylether)-N,N,N′,N′-tetraacetic acid (EGTA), 10 mM
ethylenedi- aminetetraacetic acid (EDTA), and 10 mM dithiothreitol (DTT)—was added to each
well of a 96-well plate, along with 25 μL of distilled water. Subsequently, 5 μL of each test
compound at various concentrations (50, 100, 200 and 300 μg/mL in 1% DMSO) was added to the
respective wells, except for the two control wells, which received 5 μL of either PBS buffer or 1%
DMSO. Then, 5 μL of pyruvate dehydrogenase E1 (PDH E1) protein (10 μM) and 5 μL of ATP
(10 μM) were added to each well. To initiate phosphorylation, 5 μL of PDK-1 (20 μM) in protein
buffer (1 mM MgCl2, 2000 mM KCl, 40 mM K3PO4) was added to all the wells except the control
wells, which received 5 μL of protein buffer instead. The plate was then mixed thoroughly and
incubated at 37 °C for 30 minutes. After incubation, 50 μL of kinase-Glo® reagent was added to each
well, followed by a 10-minute incubation at room temperature with gentle shaking to stabilize the
luminescent signal. Luminescence was then measured using a microplate reader.
The IC50 value—defined as the concentration of a compound required to reduce luminescence by
50%, compared to untreated control wells—was determined for each compound from the
corresponding dose–response curve generated by plotting PDK-1 inhibition (%) versus compound
concentration. Sodium dichloroacetate (SDA, 1000 μM) was used as a reference PDK-1inhibitor. […]

[2] = system: LoVo colon carcinoma cells; assay: Cell viability, LDH release assay, LoVo; conditions: Homo sapiens, LoVo, 48 h; for viability at 100 µg/mL: read-out: Mean % of viable cells ± SD, LoVo, 100 µg/mL, 48 h, LDH release assay
Protocol: as §1, §2, §3, §4, §5, §6, §7

[3] = biological target: recombinant human LDHA protein (Homo sapiens, UniProt P00338); assay: In vitro LDHA inhibitory assay (NADH consumption); format: biochemical; conditions: for inhibition at 100 µg/mL: three replicates, read-out: Mean Inhibition Percent ± SD, LDHA
Description: The LDHA inhibitory efficiencies were investigated on Spectramax M2 spectrofluorometer via measuring the amounts of the consumed NADH^40 using an NAD^+/NADH quantification kit. […]
S3.2.3. In vitro LDHA inhibitory assay.
The LDHA inhibitory activity of the test compounds was investigated using Spectramax M2
spectrofluorometer by measuring the amounts of the consumed NADH [42] employing
NAD+/NADH quantification kit. Briefly, the assay medium containing various concentrations of
each test compound (50, 100, 200 and 300 μg/mL) was incubated in assay medium composed of 20
mM of HEPES-K+ buffer (pH 7.2), 20 μM of NADH, 2 mM of pyruvate and 10 ng of purified
recombinant human LDHA protein for 10 min utes. The activity of LDHA would result in reduction
of pyruvate into lactate with concomitant oxidation of NADH to NAD +. Since NADH (reduced
LDHA, could be inversely quantified by monitoring the change in the intensity of the fluorescence
at 340 nm over a 10-minute period. The rate of the fluorescence change (slope) in treated samples
was compared to that obtained from negative control experiment (100 % enzymatic activity) to
determine the percentage of inhibition. The IC50 value—defined as the compound concentration
required to reduce the luminescence by 50%, compared to untreated control wells—was
determined for each compound from the corresponding dose–response curve generated by
plotting LDHA inhibition (%) against compound concentration.
was used as the reference LDHA inhibitor. […]

[4] = Cell viability, LDH release assay, normal HUVECs; conditions: human, normal HUVECs, Mean % of viable cells ± SD, HUVEC
Protocol: as §1, §2
medium served used as negative and positive controls, respectively. Percentages of viable cells […]
were calculated based on relative optical density (OD) values (at 550 nm) for compound-treated […]
wells (final concentration of 100 μg/mL), compared to the negative control, and expressed as mean value (%) ± SD from two replicates. Graphing dose-response curves representing the compound […]
concentration versus the percentages of viable cells was also conducted to deduce the half - […]
Additionally, the safety profiles of the studied compounds were assessed against normal cells […]
(HUVECs) at final concentration of 100 μg/mL . HUVECs were grown in Dulbecco’s Modified Eagle’s Medium supplemented with 10% FBS, 2 mM glutamine (Sigma Aldrich), 100 units/mL penicillin and […] streptomycin (Life Technologies; Paisley, UK). […]

[5] = DPPH radical scavenging assay; conditions: three independent experiments; read-out: Mean IC50 (mM) for initial DPPH radicals ± SD
Protocol: The antioxidant activities of the studied compounds were assessed using the 1,1-diphenyl-2-picrylhydrazyl (DPPH) radical scavenging method as detailed by Bersuder et al.. The results were expressed as IC50 (mM)—the concentration of the test compound required to neutralize 50% of DPPH radicals.
The antioxidant efficiencies of target compounds were determined using the 1,1-diphenyl-2-picrylhydrazyl (DPPH) radical scavenging method as detailed by Bersuder et al.. […]
S3.2. Evaluation of Biological Activities.
S3.2.1. In vitro DPPH radical scavenging assay.
The antioxidant efficiencies of compounds—3a−e, 8, 9a−c, 13, 14, 17, 18a−h, 20, 22, 23, and 25—were
determined using the 1,1-diphenyl-2-picrylhydrazyl (DPPH) radical scavenging method as
detailed by Bersuder et al.. Fundamentally, the purple color of the stabilized DPPH radical
fades in the presence of an antioxidant, thus, the change of absorbance can be followed
spectrophotometrically at 519 nm. In the assay, equal volumes (0.5 mL) of DPPH ethanolic solution
and each compound (0-2 mg/mL in DMSO) or butylated hydroxytoluene (BHT) as the reference
were mixed well by shaking. The negative control consisted of the same amount of DMSO and
DPPH solution. After, incubation all mixtures at room temperature in the dark for one hour, the
absorbance of the residual DPPH radicals was measured at 519 nm using the UV‐vis
spectrophotometer. The DPPH radical scavenging activity of each compound (%) was calculated
Scavenging activity = (1 − Acompound/AControl) * 100, where Acompound and Acontrol the absorbance values
of each tested compound (or BHT) and the negative control, respectively. The half maximal
inhibitory concentration (IC50) for each compound in mg/mL was deduced by graphing the dose-
response curve relating the scavenging activity (%) to the compound concentration. Data points
represent the mean ± standard deviation (SD) of three independent determinations.

Sequence of PDK-1 (Q15118 29-436): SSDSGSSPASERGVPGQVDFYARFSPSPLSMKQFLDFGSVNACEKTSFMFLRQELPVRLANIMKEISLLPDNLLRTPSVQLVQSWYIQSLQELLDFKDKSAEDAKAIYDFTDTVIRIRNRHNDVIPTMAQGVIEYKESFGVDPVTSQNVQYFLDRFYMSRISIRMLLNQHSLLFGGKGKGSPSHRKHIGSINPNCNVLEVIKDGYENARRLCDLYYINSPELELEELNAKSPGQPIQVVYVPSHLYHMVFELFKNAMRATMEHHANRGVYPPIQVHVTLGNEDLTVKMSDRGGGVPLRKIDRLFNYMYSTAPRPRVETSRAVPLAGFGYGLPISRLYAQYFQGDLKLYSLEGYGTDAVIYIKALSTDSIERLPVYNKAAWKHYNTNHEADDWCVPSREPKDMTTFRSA

| SMILES | viability at 100 µg/mL [1] [%] | inhibition at 100 µg/mL (PDK-1) [%] | viability at 100 µg/mL [2] [%] | inhibition at 100 µg/mL [3] [%] | viability at 48 h, 100 µg/mL [4] [%] | IC50 [5] [mM] | inhibition at 1000 µM ([3]; SO at 1000 µM (111.03 µg/mL), read-out: Mean Inhibition Percent, LDHA (reference inhibitor)) [%] | IC50 ([1]; read-out: Mean IC50 Values in µM ± SD, HCT-116 cells) [µM] | IC50 ([2]; read-out: Mean IC50 Values in µM ± SD, LoVo cells) [µM] |
| --- | --- | --- | --- | --- | --- | --- | --- | --- | --- |
| COc1ccc(/C=N/n2c(C)nc3ccc(F)cc3c2=O)cc1O [Compound 18g, (E)-6-Fluoro-3-((3-hydroxy-4-methoxybenzylidene)amino)-2-methylquinazolin-4(3H)-one] | 58.7 ± 3.06 | 66 ± 1.73 | 74.7 ± 2.52 | 22.2 ± 1.13 | 88 ± 2.65 | 0.238 ± 0.006 |  |  |  |
| CCOC(=O)c1c(/N=C/c2cc(Br)c(O)c(OC)c2)sc2c1CCC(c1ccccc1)C2 (stereo not shown) [Compound 3a, (E)-Ethyl2-((3-bromo-4-hydroxy-5-methoxybenzylidene)amino)-6-phenyl-4,5,6,7-tetrahydrobenzo[b]thiophene-3-carboxylate] | 60.7 ± 3.06 | 25.1 ± 3.04 | 57.7 ± 1.53 | 25.8 ± 2.48 | 85 ± 1.73 | 0.214 ± 0.027 |  |  |  |
| NC(=O)C(=O)O [SO, sodium oxamate, reference compound] |  |  |  |  |  |  | 100 |  |  |
| COc1cc(OC)c(/C=N/n2c(C)nc3ccc(F)cc3c2=O)c(OC)c1 [Compound 18e, (E)-6-Fluoro-2-methyl-3-((2,4,6-trimethoxybenzylidene)amino)quinazolin-4(3H)-one] | 87.3 ± 2.08 | 30 ± 1 | 88.7 ± 3.21 | 36.8 ± 1.91 | 83 ± 3.61 | 0.781 ± 0.046 |  |  |  |
| O=c1[nH]cc(F)c(=O)[nH]1 [Compound 5-FU, 5-Fluorouracil, reference compound] |  |  |  |  |  |  |  | 27 ± 1.87 | 20 ± 3.21 |
| Cc1cc(C(C)(C)C)c(O)c(C(C)(C)C)c1 [BHT, butylated hydroxytoluene, reference compound] |  |  |  |  |  | 0.245 ± 0.027 |  |  |  |
